Tests used:
DGKα = DGKα (Homo sapiens (Human), UniProt P23743); experiment: In vitro DGKα inhibition assay (ADP-Glo); assay type: biochemical; conditions: first column of Table A; His-tagged human recombinant DGKα 0.1 nM, 50 μM ATP, 20 μM DLG
Protocol: (§1) The DGKα and DGKζ biochemical reactions were performed using His-tagged human recombinant enzymes (Signal Chem, DGKα, #D21-10BH; DGKζ, #D30-1OH)) and DLG (Dilauroyl-sn-glycerol) lipid substrate (Signal Chem, #D430-59). ADP-Glo assay was performed using ADP-Glo™ kinase Assay kit (Promega, #V9104). The reactions were carried out in assay buffer containing 40 mM Tris, pH 7.5, 0.1% CHAPS, 0.1% Prionex, 40 mM NaCl, 5 mM MgCl2, 1 mM CaCl2, and 1 mM DTT. DGKα reactions contained 0.1 nM DGKα, 50 μM ATP, and 20 μM DLG. And DGKζ reactions contained 0.4 nM DGKζ, 30 μM ATP, and 20 μM DLG.
(§2) For compound inhibition studies, 40 nL test compound in DMSO was added to wells of white polystyrene plates in 384-well (Greiner, #784075) or 1536-well format (Greiner, #782075). Compounds were added with top concentration of 2 mM with 11 point, 3-fold dilution series. Enzyme solution (contains 2× DGK enzyme concentration in 1× assay buffer) was added to the plate in 2 μL/well volume, followed by 2 μL/well of substrate solution (contains 2× concentration of ATP and DLG substrate in 1× assay buffer). Plates were then centrifuged for 1 min at 1200 RPM and sealed or lidded. For 4 μL reaction volume, test compounds were therefore diluted 100× to final top concentration of 20 μM. After 90 minute incubation, reactions were quenched by addition of 2 μL/well Promega ADP-Glo Reagent, followed by centrifugation and lidding. After 60 min incubation, 2 μL/well Promega Kinase Detection Reagent was added, plates centrifuged, and incubated for 30 min. Plates were then read using Luminescence method on BMG PHERAstar FSX plate reader. Percent inhibition was calculated and IC50s were determined using 4-parameter fit in Genedata Screener. Labcyte Echo acoustic dispenser was used for compound addition, and Formulatrix Tempest liquid handler was used for all reagent dispenses.

DGKζ = DGKζ (Homo sapiens (Human), UniProt Q13574); experiment: In vitro DGKζ inhibition assay (ADP-Glo); assay type: biochemical; conditions: second column of Table A, head printed DGKα, presumably DGKζ; His-tagged human recombinant DGKζ 0.4 nM, 30 μM ATP, 20 μM DLG
Protocol: as §1, §2

Chain of DGKζ (Q13574 whole entry): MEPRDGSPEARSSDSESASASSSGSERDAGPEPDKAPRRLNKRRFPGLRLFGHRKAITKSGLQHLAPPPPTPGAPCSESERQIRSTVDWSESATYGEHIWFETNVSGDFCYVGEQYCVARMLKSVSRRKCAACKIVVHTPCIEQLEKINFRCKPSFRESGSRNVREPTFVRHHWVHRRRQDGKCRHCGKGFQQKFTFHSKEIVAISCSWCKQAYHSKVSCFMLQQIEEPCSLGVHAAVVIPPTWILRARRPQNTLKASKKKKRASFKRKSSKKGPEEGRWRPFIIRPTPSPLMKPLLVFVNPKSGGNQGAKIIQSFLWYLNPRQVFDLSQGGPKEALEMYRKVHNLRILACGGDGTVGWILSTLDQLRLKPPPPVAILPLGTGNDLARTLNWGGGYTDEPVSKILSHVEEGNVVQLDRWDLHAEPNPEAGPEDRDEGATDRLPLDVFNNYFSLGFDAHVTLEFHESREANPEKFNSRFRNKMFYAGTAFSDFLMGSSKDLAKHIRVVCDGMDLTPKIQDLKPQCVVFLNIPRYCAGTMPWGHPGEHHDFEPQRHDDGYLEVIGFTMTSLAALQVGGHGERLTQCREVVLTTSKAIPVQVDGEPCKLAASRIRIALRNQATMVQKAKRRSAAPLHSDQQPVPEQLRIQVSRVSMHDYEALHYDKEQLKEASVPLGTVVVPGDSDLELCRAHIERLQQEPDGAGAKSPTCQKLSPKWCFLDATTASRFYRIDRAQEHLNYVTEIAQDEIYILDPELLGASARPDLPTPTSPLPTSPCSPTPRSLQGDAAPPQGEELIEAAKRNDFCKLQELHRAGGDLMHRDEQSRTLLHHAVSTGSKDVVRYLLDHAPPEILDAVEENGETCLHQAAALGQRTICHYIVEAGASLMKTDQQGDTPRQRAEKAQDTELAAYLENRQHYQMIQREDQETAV
Chain of DGKα (P23743 whole entry): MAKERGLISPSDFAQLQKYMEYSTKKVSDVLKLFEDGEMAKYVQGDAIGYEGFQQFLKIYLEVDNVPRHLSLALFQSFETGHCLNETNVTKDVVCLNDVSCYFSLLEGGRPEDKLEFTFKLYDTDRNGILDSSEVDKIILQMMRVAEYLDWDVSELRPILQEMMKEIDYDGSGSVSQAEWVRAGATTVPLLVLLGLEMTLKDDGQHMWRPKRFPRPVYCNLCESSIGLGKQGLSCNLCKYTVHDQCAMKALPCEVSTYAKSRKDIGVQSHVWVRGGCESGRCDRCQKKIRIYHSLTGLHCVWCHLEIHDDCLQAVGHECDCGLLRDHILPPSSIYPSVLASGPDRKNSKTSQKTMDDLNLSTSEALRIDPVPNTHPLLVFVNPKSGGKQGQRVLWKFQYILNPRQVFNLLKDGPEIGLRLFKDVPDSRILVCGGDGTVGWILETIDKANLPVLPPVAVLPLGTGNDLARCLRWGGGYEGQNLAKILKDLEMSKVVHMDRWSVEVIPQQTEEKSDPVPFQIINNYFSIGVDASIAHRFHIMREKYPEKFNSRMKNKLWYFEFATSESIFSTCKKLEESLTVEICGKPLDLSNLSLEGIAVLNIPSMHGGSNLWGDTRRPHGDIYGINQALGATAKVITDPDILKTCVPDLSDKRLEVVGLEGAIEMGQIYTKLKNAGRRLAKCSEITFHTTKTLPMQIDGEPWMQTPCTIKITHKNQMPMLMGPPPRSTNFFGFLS

IC50 (DGKα) [µM] | IC50 (DGKζ) [µM] | SMILES
≤ 0.01 | ≤ 0.01 | C[C@@H]1CN(c2nc(=O)n(C)c3c2nnn3C[C@H]2CCCO2)[C@@H](C)CN1C(c1ccc(F)cc1)c1ccc(F)cc1 [Example 13, 7-((2S,5R)-4-(Bis(4-fluorophenyl)methyl)-2,5-dimethylpiperazin-1-yl)-4-methyl-3-(((R)-tetrahydrofuran-2-yl)methyl)-3,4-dihydro-5H-[1,2,3]triazolo[4,5-d]pyrimidin-5-one]
≤ 0.01 | ≤ 0.01 | Cc1nc2c(N3C[C@@H](C)N(C(CC(C)C)c4ccc(Cl)cc4)C[C@@H]3C)nc(=O)n(C)c2n1C[C@@H]1CCCO1 (stereo partly drawn) [Example 16, 6-((2S,5R)-4-(1-(4-Chlorophenyl)-3-methylbutyl)-2,5-dimethylpiperazin-1-yl)-3,8-dimethyl-9-(((S)-tetrahydrofuran-2-yl)methyl)-3,9-dihydro-2H-purin-2-one]
≤ 0.01 | ≤ 0.1 | CC[C@@H]1CN(c2nc(=O)n(C)c3c2nnn3C[C@H]2CCCO2)[C@@H](C)CN1[C@H](c1ccc(Cl)cc1)[C@@H]1CC1(F)F [Example 22, 7-((2S,5R)-4-((S)-(4-Chlorophenyl)((S)-2,2-difluorocyclopropyl)methyl)-5-ethyl-2-methylpiperazin-1-yl)-4-methyl-3-(((R)-tetrahydrofuran-2-yl)methyl)-3,4-dihydro-5H-[1,2,3]triazolo[4,5-d]pyrimidin-5-one]
≤ 0.01 | ≤ 0.01 | CC[C@@H]1CN(c2nc(=O)n(C)c3c2nnn3C[C@H]2CCCO2)[C@@H](C)CN1[C@@H](c1ccc(Cl)cc1)[C@@H]1CC1(F)F [Example 23, 7-((2S,5R)-4-((R)-(4-chlorophenyl)((S)-2,2-difluorocyclopropyl)methyl)-5-ethyl-2-methylpiperazin-1-yl)-4-methyl-3-(((R)-tetrahydrofuran-2-yl)methyl)-3,4-dihydro-5H-[1,2,3]triazolo[4,5-d]pyrimidin-5-one]
≤ 0.01 | ≤ 0.01 | CC[C@@H]1CN(c2nc(=O)n(C)c3c2nc(C)n3C[C@@H]2CCCO2)[C@@H](C)CN1[C@@H](CC)c1ccc(Cl)cc1 [Example 24, 6-((2S,5R)-4-((S)-1-(4-Chlorophenyl)propyl)-5-ethyl-2-methylpiperazin-1-yl)-3,8-dimethyl-9-(((S)-tetrahydrofuran-2-yl)methyl)-3,9-dihydro-2H-purin-2-one]
≤ 0.01 | ≤ 0.01 | CC[C@@H]1CN(c2nc(=O)n(C)c3c2nc(C)n3C[C@@H]2CCCO2)[C@@H](C)CN1[C@H](CC)c1ccc(Cl)cc1 [Example 25, 6-((2S,5R)-4-((R)-1-(4-chlorophenyl)propyl)-5-ethyl-2-methylpiperazin-1-yl)-3,8-dimethyl-9-(((S)-tetrahydrofuran-2-yl)methyl)-3,9-dihydro-2H-purin-2-one]
≤ 0.01 | ≤ 0.01 | CC[C@@H]1CN(c2nc(=O)n(C)c3c2nnn3C[C@H]2CCCO2)[C@@H](C)CN1[C@@H](CC)c1ccc(Cl)cc1 [Example 26, 7-((2S,5R)-4-((S)-1-(4-Chlorophenyl)propyl)-5-ethyl-2-methylpiperazin-1-yl)-4-methyl-3-(((R)-tetrahydrofuran-2-yl)methyl)-3,4-dihydro-5H-[1,2,3]triazolo[4,5-d]pyrimidin-5-one]
≤ 0.01 | ≤ 0.1 | CC[C@@H]1CN(c2nc(=O)n(C)c3c2nnn3C[C@H]2CCCO2)[C@@H](C)CN1[C@H](CC)c1ccc(Cl)cc1 [Example 27, 7-((2S,5R)-4-((R)-1-(4-chlorophenyl)propyl)-5-ethyl-2-methylpiperazin-1-yl)-4-methyl-3-(((R)-tetrahydrofuran-2-yl)methyl)-3,4-dihydro-5H-[1,2,3]triazolo[4,5-d]pyrimidin-5-one]
≤ 0.01 | ≤ 0.01 | CC[C@@H]1CN(c2nc(=O)n(C)c3c2nc(C)n3C[C@@H]2CCCO2)[C@@H](C)CN1[C@@H](CC)c1ccc(C(F)(F)F)cc1 [Example 28, 6-((2S,5R)-5-Ethyl-2-methyl-4-((S)-1-(4-(trifluoromethyl)phenyl)propyl)piperazin-1-yl)-3,8-dimethyl-9-(((S)-tetrahydrofuran-2-yl)methyl)-3,9-dihydro-2H-purin-2-one]
≤ 0.01 | ≤ 0.01 | CC[C@@H]1CN(c2nc(=O)n(C)c3c2nc(C)n3C[C@@H]2CCCO2)[C@@H](C)CN1[C@H](CC)c1ccc(C(F)(F)F)cc1 [Example 29, 6-((2S,5R)-5-ethyl-2-methyl-4-((R)-1-(4-(trifluoromethyl)phenyl)propyl)piperazin-1-yl)-3,8-dimethyl-9-(((S)-tetrahydrofuran-2-yl)methyl)-3,9-dihydro-2H-purin-2-one]
≤ 0.01 | ≤ 0.01 | CC[C@@H]1CN(c2nc(=O)n(C)c3c2nnn3C[C@H]2CCCO2)[C@@H](C)CN1[C@@H](CC)c1ccc(C(F)(F)F)cc1 [Example 30, 7-((2S,5R)-5-Ethyl-2-methyl-4-((S)-1-(4-(trifluoromethyl)phenyl)propyl)piperazin-1-yl)-4-methyl-3-(((R)-tetrahydrofuran-2-yl)methyl)-3,4-dihydro-5H-[1,2,3]triazolo[4,5-d]pyrimidin-5-one]
≤ 0.01 | ≤ 0.01 | CC[C@@H]1CN(c2nc(=O)n(C)c3c2nnn3C[C@H]2CCCO2)[C@@H](C)CN1[C@H](CC)c1ccc(C(F)(F)F)cc1 [Example 31, 7-((2S,5R)-5-ethyl-2-methyl-4-((R)-1-(4-(trifluoromethyl)phenyl)propyl)piperazin-1-yl)-4-methyl-3-(((R)-tetrahydrofuran-2-yl)methyl)-3,4-dihydro-5H-[1,2,3]triazolo[4,5-d]pyrimidin-5-one]
≤ 0.01 | ≤ 0.01 | C[C@@H]1CN(c2nc(=O)n(C)c3c2nnn3C[C@@H]2CCCO2)[C@@H](C)CN1C(c1ccc(C(F)(F)F)cn1)c1ccc(C(F)(F)F)cn1 [Example 32, 7-((2S,5R)-4-(Bis(5-(trifluoromethyl)pyridin-2-yl)methyl)-2,5-dimethylpiperazin-1-yl)-4-methyl-3-(((S)-tetrahydrofuran-2-yl)methyl)-3,4-dihydro-5H-[1,2,3]triazolo[4,5-d]pyrimidin-5-one]
≤ 0.01 | ≤ 0.01 | C[C@@H]1CN(c2nc(=O)n(C)c3c2nnn3C[C@H]2CCCO2)[C@@H](C)CN1C(c1ccc(C(F)(F)F)cn1)c1ccc(C(F)(F)F)cn1 [Example 33, 7-((2S,5R)-4-(Bis(5-(trifluoromethyl)pyridin-2-yl)methyl)-2,5-dimethylpiperazin-1-yl)-4-methyl-3-(((R)-tetrahydrofuran-2-yl)methyl)-3,4-dihydro-5H-[1,2,3]triazolo[4,5-d]pyrimidin-5-one]
≤ 0.01 | ≤ 0.1 | CC[C@@H]1CN(c2nc(=O)[nH]c3c2nc(C)n3C[C@@H]2CCCO2)[C@@H](C)CN1C(c1ccc(Cl)cc1)C1CC(F)(F)C1 (stereo partly drawn) [Example 36, 6-((2S,5R)-4-((4-Chlorophenyl)(3,3-difluorocyclobutyl)methyl)-5-ethyl-2-methylpiperazin-1-yl)-8-methyl-9-(((S)-tetrahydrofuran-2-yl)methyl)-3,9-dihydro-2H-purin-2-one]
≤ 0.01 | ≤ 0.01 | CC[C@@H]1CN(c2nc(=O)n(C)c3c2nc(C)n3C[C@@H]2CCCO2)[C@@H](C)CN1C(c1ccc(Cl)cc1)C1CC(F)(F)C1 (stereo partly drawn) [Example 37, 6-((2S,5R)-4-((4-Chlorophenyl)(3,3-difluorocyclobutyl)methyl)-5-ethyl-2-methylpiperazin-1-yl)-3,8-dimethyl-9-(((S)-tetrahydrofuran-2-yl)methyl)-3,9-dihydro-2H-purin-2-one]
≤ 0.01 | ≤ 0.01 | CC[C@@H]1CN(c2nc(=O)n(C)c3c2nc(C)n3C[C@@H]2CCCO2)[C@@H](C)CN1C(c1ccc(C(F)(F)F)cc1)C1CC(F)(F)C1 (stereo partly drawn) [Example 38, 6-((2S,5R)-4-((3,3-Difluorocyclobutyl)(4-(trifluoromethyl)phenyl)methyl)-5-ethyl-2-methylpiperazin-1-yl)-3,8-dimethyl-9-(((S)-tetrahydrofuran-2-yl)methyl)-3,9-dihydro-2H-purin-2-one]
≤ 0.01 | ≤ 0.01 | Cc1nc2c(N3C[C@@H](C)N(C(c4ccc(Cl)c(F)c4)C4CC(F)(F)C4)C[C@@H]3C)nc(=O)n(C)c2n1C[C@@H]1CCCO1 (stereo partly drawn) [Example 39, 6-((2S,5R)-4-((4-Chloro-3-fluorophenyl)(3,3-difluorocyclobutyl)methyl)-2,5-dimethylpiperazin-1-yl)-3,8-dimethyl-9-(((S)-tetrahydrofuran-2-yl)methyl)-3,9-dihydro-2H-purin-2-one]

From patent publication US20250066363A1, “Bicyclic DGK Inhibitors” (Incyte Corporation, priority 2023, published 2025)
